Consider seven molecules from PMC7955114, “Discovery of fungal surface NADases predominantly present in pathogenic species” (Nature Communications, 2021).

Data set [1] concerns the target T1, AfNADase (Aspergillus fumigatus, UniProt Q4WL81).
T1 construct: gene nadA; N-glycosylated at N45, N95, N118; about 30 kDa; homodimer; thumb 20-117, TNT palm domain 117-234; mutants also in 293 cells (C-terminal His6)
The experiment in a line: X-ray structure, crystals soaked with NAD+. It is filed as binding. Particulars: active site of molecule A, EGTA-treated protein, Ca2+ absent, formed from 10 mM NAD+ soak.

The target of data set [2] is T1, AfNADase. The experiment in a line: X-ray co-crystal structure. Format: binding. As to conditions: non-hydrolysable substrate analogue, active site of molecule B; 5 mM BAD co-crystallized, 0.1 M sodium acetate pH 5, CaCl2.
The target in another data set is T2, NcNADase (Neurospora crassa, UniProt Q7S936).
T2 construct: gene NCU07948; secreted from transiently transfected 293 cells, codon-optimized, in pCMV-Flag5a (Flag tag), anti-FLAG purified, N-glycosylated
The experiment in a line: HPLC cleavage assay. Format: biochemical. Particulars: 200 µM substrate, 50 mM Tris-HCl pH 8.0, 0.5 mM CaCl2, 150 mM NaCl, 20 °C (conditions described for AfNADase).

For data set [3], the system named is NC(=O)c1ccc[n+]([C@@H]2O[C@H](COP(=O)(O)OP(=O)(O)OC[C@H]3O[C@@H](n4cnc5c(N)ncnc54)[C@H](O)[C@@H]3O)[C@@H](O)[C@H]2O)c1. The experiment in a line: purified protein. As to conditions: 500 µM substrate, 0.2 nM enzyme, 25 mM sodium phosphate pH 5.8, 50 mM NaCl, 5 % D2O, 23 °C.
The test system of data set [4] is NC(=O)c1ccc[n+]([C@@H]2O[C@H](COP(=O)(O)OP(=O)(O)OC[C@H]3O[C@@H](n4cnc5c(N)ncnc54)[C@H](OP(=O)(O)O)[C@@H]3O)[C@@H](O)[C@H]2O)c1. The experiment in a line: purified protein. Particulars: 500 µM substrate, 0.2 nM enzyme, 25 mM sodium phosphate pH 5.8, 50 mM NaCl, 5 % D2O, 23 °C.
Data set [5] concerns the molecule itself. The data set can be described thus: SEC; purified recombinant AfNADase; conditions of the analysis not told in the text (Supplementary Fig. 2C-F). A general note: Size exclusion chromatography separates by hydrodynamic size, large species first.

T2 sequence (Q7S936 20-243): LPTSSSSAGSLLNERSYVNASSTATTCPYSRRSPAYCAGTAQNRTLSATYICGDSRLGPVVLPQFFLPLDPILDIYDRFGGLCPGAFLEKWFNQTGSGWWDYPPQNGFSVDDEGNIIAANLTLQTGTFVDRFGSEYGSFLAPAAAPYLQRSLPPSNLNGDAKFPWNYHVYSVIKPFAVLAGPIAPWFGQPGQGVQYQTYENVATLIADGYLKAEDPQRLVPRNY

For the molecule `Nc1ncnc2c1ncn2[C@@H]1O[C@H](COP(=O)(O)OP(=O)(O)OC[C@H]2OC(O)[C@H](O)[C@@H]2O)[C@@H](O)[C@H]1O` (some centres unmarked) [ADPR], on AfNADase [1] (bound together with nicotinamide), the “X-ray structure, crystals soaked with NAD+” value was “the reaction products, Nam and ADPR, were bound to a putative active site”.

As for `NC(=O)c1cccc([C@@H]2O[C@H](COP(=O)(O)OP(=O)(O)OC[C@H]3O[C@@H](n4cnc5c(N)ncnc54)[C@H](O)[C@@H]3O)[C@@H](O)[C@H]2O)c1` [BAD], the X-ray co-crystal structure result on AfNADase [2] is “We were able to co-crystallize AfNADase with BAD bound to the active site”.

With `NC(=O)c1ccc[n+]([C@@H]2O[C@H](COP(=O)(O)OP(=O)(O)OC[C@H]3O[C@@H](n4cnc5c(N)ncnc54)[C@H](OP(=O)(O)O)[C@@H]3O)[C@@H](O)[C@H]2O)c1` [NADP^+], the HPLC cleavage assay entry at NcNADase was “Both AfNADase and NcNADase cleaved NAD^+ and NADP^+”.

`NC(=O)c1ccc[n+]([C@@H]2O[C@H](COP(=O)(O)OP(=O)(O)OC[C@H]3O[C@@H](n4cnc5c(N)ncnc54)[C@H](O)[C@@H]3O)[C@@H](O)[C@H]2O)c1` [NAD^+]: the HPLC cleavage assay result at NcNADase is “Both AfNADase and NcNADase cleaved NAD^+ and NADP^+”.

`NC(=O)c1cccnc1` [Nam]: the “X-ray structure, crystals soaked with NAD+” value on AfNADase [1] (bound together with ADP-ribose) is “the reaction products, Nam and ADPR, were bound to a putative active site”.

As for AfNADase (Aspergillus fumigatus Af293), the Km (as a rule, the concentration of substrate that gives half-maximal velocity) was 119.7 ± 40.8 µM in data set [3] and 106 ± 27.1 µM in data set [4].

B1: Aspergillus fumigatus NADase (AfNADase), recombinant, from Sf9 insect cells (enzyme)
chain: LQHTEDSLFPARCWPDPCAGITFQNDTYVCGDPRLGPVVLPQKFPLNNELRTYARFGALCPAEFLDKWATDVAPNGTYIYPPANGFALDTEEQPILGNATLPVGMKLDRFGSEYGTFLAPLGAPYIERSLPPSNLNTFDGMYPYNYHVYQVTKEFVVGLGPIAPWFEQPGMGTQFVTYTNVLGLIDDGYLRRLDESEYDEKVEYSNPYTPGPNQ
modifications: N-linked glycosylation at N45, N95 and N118; disulfide bridges C33-80 and C38-50
notes: also called A. fumigatus NADase; gene product AFUA_6G14470
With B1, the stoichiometry N (in general, the number of molecules, sites or subunits per partner or assembly) in data set [5] worked out at 2.
